Experimental data: patent US7307166B1, “Oxpurine nucleosides and their congeners, and acyl, derivatives thereof, for improvement of hematopoiesis” (Wellstat Therapeutics Corporation, priority 1987, dated 2007)

Columns and labels:
female Balb/C mice [1] = assay: Survival of mice irradiated with Cobalt 60 gamma radiation; type: in vivo, mouse; conditions: for number of mice surviving 30 days after irradiation over number irradiated: 50 mg/kg i.p. daily 6 days from 24 h after irradiation
[2] = test system: Normal Balb/C female mice; assay: Hematopoiesis in normal mice; type: in vivo, mouse
Protocol: Normal, otherwise untreated, female Balb/C mice weighing approximately 20 grams each received a total of 4 or 9 0.4 ml intraperitoneal injections (one per day) of either Tween-80 (0.2%) (controls), palmitoylguanosine ([…]), or palmitoyldeoxyinosine ([…]). Twenty-four hours after the 4th or 9th treatment, groups of 5 or 6 animals from each of the 3 groups were bled and then sacrificed by cervical dislocation. Spleens were removed and weighed, and complete blood cell counts performed.
Normal Balb/C female mice weighing approximately 20 grams each were given a daily 0.4 ml i.p. injection of either physiological saline (controls), palmitoylguanosine (2.6 μmoles/mouse), palmitoyldeoxyguanosine (2.6 μmoles/mouse), monopalmitoylguanosine 2′,3′-acyclic dialcohol (2.6 μmoles/mouse), and palmitoyl-8-bromoguanosine (2.6 μmoles/mouse) for 4 days. On the fifth day all 3 animals in each of the 5 groups were bled and then sacrificed by cervical dislocation. Spleens were removed and weighed, and complete blood cell counts performed. Femoral bone marrow from each mouse was collected and a differential cell count performed on marrow smears.

female Balb/C mice [3] = assay: Survival after bacterial endotoxin (salmonella typhimurium LPS); type: in vivo, mouse; conditions: 21-day observation; LPS 100 μg (5 mg/kg); 25 mg/kg i.p. daily 3 days prior
Protocol: In an experiment to test the effect of N^2,3′,5′-tripalmitoyldeoxyguanosine (PdG) on animals challenged by endotoxin, 42 female Balb/C mice were divided into three groups of 14 animals each. Each group was given a single 100 μg dose (5 mg/kg) of salmonella typhimurium LPS. Two of the groups were treated once per day for three days prior to receiving the LPS by intraperitoneal injection with either 25 mg/kg PdG or with vehicle alone. The third group received no pretreatment. Survival of the animals was monitored for 21 days subsequent to the LPS dose.

female Balb/C mice [4] = assay: Cisplatin-induced myelosuppression; type: in vivo, mouse; conditions: for survival: day 11
Protocol: A study was conducted to assess the effects of N^2,3′,5′-tripalmitoyldeoxyguanosine (PdG) in reducing the hematologic toxicity of cisplatin. Female Balb/C mice were divided into groups of five animals each per dose per time point. Half of the groups were given a series of three daily doses of PdG (25 mg/kg) by intraperitoneal injection and the other half were treated with the vehicle alone. Twenty-four hours later, the animals were given a single dose of cisplatin by intraperitoneal injection at one of four doses: 8, 11, 12 or 15 mg/kg. Blood samples were taken by retro-orbital eye bleed at four, seven and 11 days after administration of cisplatin.

[5] = test system: IL-3-dependent bone marrow cells; assay: Apoptosis of IL-3-dependent bone marrow cells deprived of IL-3 (trypan blue exclusion); type: cell-based, mouse; conditions: 10 micrograms per milliliter
Protocol: Bone marrow cells were obtained by flushing the femurs of three male B6D2F1 mice. The cells were plated at 5.0×10^5/ml in MEM plus 10% fetal calf serum and 25 Units/ml of recombinant IL-3 for 24-48 hours. Non-adherent cells were then separated from adherent cells and maintained for an additional twelve days. IL-3 washed from cells, and cells were plated in MEM plus 10% fetal calf serum in the presence or absence of IL-3 and with or without the addition of palmitoyldeoxyguanosine (10 micrograms per milliliter) or deoxyguanosine (10 micrograms per milliliter). Cells were counted using the trypan blue exclusion method, and the percent of dead cells (trypan blue positive) was determined at 24, 40, 60 and 84 hours following the wash.

interleukin-6 = assay: LPS-induced elevation of serum interleukin-6; type: in vivo, mouse; conditions: PdG 25 mg/kg i.p.
Protocol: Sixty-three female Balb/C mice were randomly assigned to one of three groups. The animals in one group received a single daily dose of N^2,3′,5′-tripalmitoyldeoxyguanosine (PdG) (25 mg/kg, i.p.), while a second group received a single daily dose of the PdG treatment vehicle (control). The third group was left untreated. On the fourth day 100 μg salmonella typhimurium LPS was administered to all three groups. Serum samples were taken just prior to LPS administration (t=0) and at two, four, six, eight, ten, twelve, sixteen, and twenty hours after LPS administration. The samples were then frozen until the time of assay. Serum levels of TNF-alpha, and IFN-gamma were measured by ELISA.
PdG also attenuated LPS-induced elevation of serum interleukin-1-alpha and interleukin-6.

FDCPmix cells = assay: FDCPmix cell proliferation in the presence of IL-3 (MTT assay); type: cell-based
Protocol: The FDCPmix cell line was used as a suitable in vitro model for predicting the effects of hematopoietic factors on pluripotential stem cells. These cells can be maintained in an undifferentiated state in the presence of IL-3 or undergo multi-lineage development in the presence of specific hematopoietic growth factors.
This level of proliferation (100%) served as the control value. Inhibition of proliferation by test compounds was represented as a percent of control.
FDCPmix cells were plated at a density of 5×10^4 cells per well in 96-well plates (5×10^5/ml) using IMDM medium plus 10% fetal bovine serum. […] Test compounds were added at a decreasing concentrations ranging from 10 micrograms/ml down to 1 nanogram/ml. The test compounds included: 3′,5′-O—N^2-tripalmitoyl-2′-deoxyguanosine, 3′,5′-di-O-palmitoyl-2′-deoxy-guanosine, 3′,5′-O—N^2-trioctanoyl-2′-deoxyguanosine, 3′,5′-di-O-octanoyl-2′-deoxyguanosine, and 3′,5′-o-N^2-trioleyl-2′-deoxy-guanosine.

[6] = day 4 after cisplatin 8 mg/kg, PdG 25 mg/kg x3 before
[7] = day 4 after cisplatin 11 mg/kg, PdG 25 mg/kg x3 before
[8] = day 4 after cisplatin 12 mg/kg, PdG 25 mg/kg x3 before
[9] = day 4 after cisplatin 15 mg/kg, PdG 25 mg/kg x3 before
[10] = day 7 after cisplatin 8 mg/kg, PdG 25 mg/kg x3 before
[11] = day 7 after cisplatin 11 mg/kg, PdG 25 mg/kg x3 before
[12] = day 7 after cisplatin 12 mg/kg, PdG 25 mg/kg x3 before
[13] = day 7 after cisplatin 15 mg/kg, PdG 25 mg/kg x3 before
[14] = day 11 after cisplatin 8 mg/kg, PdG 25 mg/kg x3 before
[15] = day 11 after cisplatin 11 mg/kg, PdG 25 mg/kg x3 before
[16] = day 11 after cisplatin 12 mg/kg, PdG 25 mg/kg x3 before
[17] = day 11 after cisplatin 15 mg/kg, PdG 25 mg/kg x3 before

CCCCCCCCCCCCCCCC(=O)OC[C@H]1O[C@@H](n2cnc3c(=O)[nH]c(N)nc32)[C@H](O)[C@@H]1O
number of mice surviving 30 days after irradiation over number irradiated (female Balb/C mice [1]; 725 R): 5/5
number of mice surviving 30 days after irradiation over number irradiated (female Balb/C mice [1]; 750 R): 5/5
survival (female Balb/C mice [1]; pretreatment prior to irradiation): improved survival
spleen weights ([2]; Ex 44: day 5, 2.5 Moles/mouse/day i.p., 4 injections): significantly greater
total leukocyte counts ([2]; Ex 44: day 10, 9 injections): significantly elevated
spleen weight ([2]; Ex 56: fifth day, 2.6 μmoles/mouse i.p. daily 4 days): significantly elevated

CCCCCCCCCCCCCCCC(=O)Nc1nc2c(ncn2[C@H]2C[C@H](OC(=O)CCCCCCCCCCCCCCC)[C@@H](COC(=O)CCCCCCCCCCCCCCC)O2)c(=O)[nH]1 [PdG, 3′,5′-O-N^2-tripalmitoyl-2′-deoxyguanosine]
survival (female Balb/C mice [3]): All
effect on red blood cells (female Balb/C mice [4]; any time point): no effect
WBC (female Balb/C mice [4]; day 4 after cisplatin 8 mg/kg, PdG 25 mg/kg i.p. 3 daily doses before): 10.2 ± 1.4 K/μL
Lymphocytes (female Balb/C mice [4]; [6]): 8.0 ± 0.9 K/μL
Neutrophils (female Balb/C mice [4]; [6]): 1.77 ± 0.3 K/μL
Lymphocytes (female Balb/C mice [4]; [7]): 7.9 ± 1.1 K/μL
Neutrophils (female Balb/C mice [4]; [7]): 3.99 ± 0.7 K/μL
WBC (female Balb/C mice [4]; [7]): 7.2 ± 0.6 K/μL
Lymphocytes (female Balb/C mice [4]; [8]): 5.14 ± 1.0 K/μL
Neutrophils (female Balb/C mice [4]; [8]): 1.59 ± 0.3 K/μL
WBC (female Balb/C mice [4]; [8]): 6.9 ± 0.9 K/μL
Lymphocytes (female Balb/C mice [4]; [9]): 4.37 ± 0.61 K/μL
Neutrophils (female Balb/C mice [4]; [9]): 2.69 ± 1.3 K/μL
WBC (female Balb/C mice [4]; [9]): 7.1 ± 1.0 K/μL
Lymphocytes (female Balb/C mice [4]; [10]): 5.38 ± 0.71 K/μL
Neutrophils (female Balb/C mice [4]; [10]): 2.74 ± 0.50 K/μL
Platelets (female Balb/C mice [4]; [10]): 910 ± 135 K/μL
Lymphocytes (female Balb/C mice [4]; [11]): 5.44 ± 0.22 K/μL
Neutrophils (female Balb/C mice [4]; [11]): 4.58 ± 0.3 K/μL
Platelets (female Balb/C mice [4]; [11]): 974 ± 49 K/μL
WBC (female Balb/C mice [4]; [11]): 9.4 ± 0.83 K/μL
Lymphocytes (female Balb/C mice [4]; [12]): 5.14 ± 0.91 K/μL
Neutrophils (female Balb/C mice [4]; [12]): 3.23 ± 0.7 K/μL
WBC (female Balb/C mice [4]; [12]): 8.5 ± 0.9 K/μL
Lymphocytes (female Balb/C mice [4]; [13]): 2.80 ± 0.44 K/μL
Neutrophils (female Balb/C mice [4]; [13]): 4.06 ± 0.46 K/μL
WBC (female Balb/C mice [4]; [13]): 7.0 ± 0.38 K/μL
survival (female Balb/C mice [4]; 12 mg/kg cisplatin (60% of the controls had died)): All
survival (female Balb/C mice [4]; 15 mg/kg cisplatin (all control animals dead)): three of five
Lymphocytes (female Balb/C mice [4]; [14]): 7.9 ± 0.5 K/μL
Neutrophils (female Balb/C mice [4]; [14]): 1.33 ± 0.32 K/μL
Platelets (female Balb/C mice [4]; [14]): 994 ± 29 K/μL
WBC (female Balb/C mice [4]; [14]): 9.3 ± 0.3 K/μL
Lymphocytes (female Balb/C mice [4]; [15]): 7.9 ± 1.23 K/μL
Neutrophils (female Balb/C mice [4]; [15]): 1.00 ± 0.37 K/μL
Platelets (female Balb/C mice [4]; [15]): 968 ± 47 K/μL
WBC (female Balb/C mice [4]; [15]): 8.7 ± 1.0 K/μL
Lymphocytes (female Balb/C mice [4]; [16]): 5.34 ± 0.73 K/μL
Neutrophils (female Balb/C mice [4]; [16]): 3.26 ± 0.48 K/μL
Platelets (female Balb/C mice [4]; [16]): 738 ± 35 K/μL
WBC (female Balb/C mice [4]; [16]): 8.7 ± 0.6 K/μL
Lymphocytes (female Balb/C mice [4]; [17]): 7.65 ± 0.49 K/μL
Neutrophils (female Balb/C mice [4]; [17]): 2.02 ± 0.68 K/μL
Platelets (female Balb/C mice [4]; [17]): 657 ± 113 K/μL
WBC (female Balb/C mice [4]; [17]): 9.7 ± 0.3 K/μL
platelet counts higher than in vehicle-treated control animals (female Balb/C mice [4]; day four, cisplatin 8 mg/kg): approximately 30%
% Dead Cells ([5]; 40 hr after IL-3 wash): 18.0 ± 3.0 %
% Dead Cells ([5]; 60 hr after IL-3 wash): 16.0 ± 1.5 %
% Dead Cells ([5]; 84 hr after IL-3 wash): 15.3 ± 5.5 %
LPS-induced elevation of serum interleukin-6 (interleukin-6): attenuated
Cell proliferation (% of Control) (FDCPmix cells; Dose 10 ng): 78 ± 1 % of Control
Cell proliferation (% of Control) (FDCPmix cells; Dose 39 ng): 76 ± 2 % of Control
Cell proliferation (% of Control) (FDCPmix cells; Dose 156 ng): 72 ± 3 % of Control
Cell proliferation (% of Control) (FDCPmix cells; Dose 625 ng): 60 ± 2 % of Control
Cell proliferation (% of Control) (FDCPmix cells; Dose 2.5 μg): 51 ± .7 % of Control
Cell proliferation (% of Control) (FDCPmix cells; Dose 10 μg, 48 hours, IL-3 25 units/ml): 51 ± .6 % of Control
